Reference: US20060106102A1, “Napththalene derivatives which inhibit the cytokine or biological activity of microphage migration inhibitory factor (mif)” (priority 2002, published 2006)
Where two headings read alike, the source gives them in different places. Values belong to the compound of their own block, whether it stands above or below them.

Experiments:
[1] = tested on: IL-1-induced COX-2 expression; assay: IL-1-induced COX-2 expression in S112 human dermal fibroblasts (MIF-dependent event), flow cytometry; type: cell-based; conditions: Homo sapiens, Fibroblast, IL-1 0.1 ng/ml, 6 hours, S112 cells, read-out: % inhibition of IL-1-induced COX2 expression (Effect); for inhibition at 1 µM: compound 1 uM
Experimental: The activity of each compound was studied in a bioassay utilising MIF-dependent activation of human dermal fibroblasts. […] IL-1-induced COX-2 expression is therefore a MIF-dependent event. […] Prior to experimentation, cells were seeded at 10^5 cells/ml in RPMI/0.1% BSA for 18 hours. […] Cells permeabilised with 0.1% saponin were sequentially labelled with a mouse anti-human COX-2 monoclonal antibody and with sheep-anti-mouse F(ab)2 fragment labelled with fluoroscein isothiocyanate. Cellular fluorescence was determined using a flow cytometer. At least 5000 events were counted for each reading, each of which was performed in duplicate, and the results expressed in mean fluorescence intensity (MFI) after subtraction of negative control-labelled cell fluorescence. The effect of each compound was determined by subtracting the IL-1+compound-treated cell MFI from the IL-1-treated cell MFI and expressed as % inhibition. In each case the % inhibition of IL-1-induced COX2 expression is shown as the mean, or mean±SEM where results are available from multiple experiments.

[2] = tested on: rat adjuvant-induced arthritis (AIA) model; assay: rat adjuvant-induced arthritis (AIA) model; type: in vivo, Sprague-Dawley rats; conditions: 1.0 mg/kg once daily intraperitoneal
Experimental: The activity of each compound was studied in the rat adjuvant-induced arthritis (AIA) model of rheumatoid arthritis. […] Male Sprague-Dawley rats (150±20 g) were used. Adjuvant artritis was induced by intradermal injection at the tail base of […] of a 10 mg/ml suspension of heat-inactivated Mycobacterium tuberculosis (Difco, Detroit, Mich.) in squalane. The compound was administered at a dose of 1.0 mg/kg body weight by once daily intraperitoneal injection on each day (treated). Control animals received an identical volume injection of vehicle (control). Joint inflammation in adjuvant arthritis was assessed clinically as follows: • i) Articular index/score: A score of 0 (no observable erythema or swelling) to 4 (severe swelling and erythema) was given for each paw. All four paws were scored, resulting in a maximum possible score of 16 for each animal (34). • ii) Synovial fluid cell number: Joints were exposed by removal of overlying skin, needle arthrocentesis performed and joint space cells obtained by closed needle lavage with 2 ml saline using a 26 gauge needle and syringe. Lavaged cells from both ankle joints were pooled, washed in saline (300 g for 5 minutes), and counted in a hemocytometer (Improved Nebauer, Weber, UK) (34).

[3] = tested on: antigen-specific T cell activation (splenic T lymphocytes from mBSA-immunised mice); assay: antigen-specific (mBSA) activation of splenic T lymphocytes in vitro, 3H-thymidine incorporation; type: cell-based, C57BL6/J mice; conditions: for EC50: Mus musculus, T-cell, read-out: EC50 (T cell activation suppressed by 50% compared to vehicle-only-treated cells)
Experimental: After a further seven (7) days mice were killed and spleens collected aseptically into Hanks buffered saline solution (HBSS). A single cell suspension was prepared in Petri dishes by flushing DMEM through the organ using a 26G needle and 2 mL syringe. The resulting cell suspension was centrifuged for 5-7 minutes and supernatant discarded. Erythrocytes were lysed using a solution containing 0.579% NH4Cl, 0.000037% EDTA, and 0.1% NaHCO3 in a 37° C. water bath. Tubes were then filled with DMEM and centrifuged for 5-7 minutes. […] The specific stimulating antigen, mBSA, was then added at 10-50 μg/mL and plates incubated for 30 hours in a 37° C., 5% CO2 incubator. Tritiated^3H-thymidine was then added at a concentration of 0.5 μCi/well for a further 18 hours. Cells were harvested on a Packard cell harvester, and the harvested material added to 750 μL/tube scintillation fluid. Scintillation counts were read on a Wallac beta-emnission counter. […] Further compounds were also tested for their ability to inhibit antigen-specific T cell activation as a marker of the inhibition of the cytokine or biological activity of MIF using this assay.

[4] = tested on: murine peritoneal macrophage nitric oxide production; assay: murine peritoneal macrophage nitric oxide production (nitrite, Greiss assay); type: cell-based, C57BL6/J mice; conditions: Mus musculus, LPS 10 ng/ml and interferon-γ 10 units/ml, 24 hours, read-out: % Nitrite concentration inhibition from control
Experimental: C57BL6/J male mice were injected intraperitoneally with 2ml of thioglycollate. Five (5) days later peritoneal macrophages were collected by ravaging the peritoneum of anaesthetized mice with 3 ml of cold Hanks buffered saline solution. Cells from several mice were pooled, washed and re-suspended in DMEM supplemented with 5% FCS. Cells were plated in 96 well plastic tissue culture plates at 1×10^5 cells/well. Cells were treated with compound or vehicle for 1 hour in a 5% CO2 incubator at 37° C. Cells were then treated with LPS (10 ng/ml) and recombinant human interferon-γ (10 units/ml) and incubated for 24 hours. After 24 hours, 50 μl of supernatant from each well was carefully removed and transferred to ELISA plates. The concentration of nitrite in culture supernatants was measured by the Greiss assay (41). The results were defined as the percentage inhibition of nitrite concentration in compound-treated cell culture supernatants compared to that of vehicle-treated cells.

[5] = tested on: recombinant human macrophage migration inhibitory factor (MIF)-induced proliferation of S112 human dermal fibroblasts; assay: MIF-induced proliferation of S112 human dermal fibroblasts, 3H-thymidine incorporation; type: cell-based; conditions: for inhibition at 0.013 µM: Homo sapiens, Fibroblast, concentration 0.013 μM, rhMIF 50 ng/ml, S112 cells, read-out: % inhibition of proliferation compared to vehicle plus rhMIF-treated cells
Experimental: The activity of each compound was studied in a bioassay utilising MIF-induced proliferation of human dermal fibroblasts. S112 human dermal fibroblasts were propagated in RPMI/10% foetal calf serum (FCS). Prior to experimentation, cells were seeded at 10^5 cells/ml in RPMI/0.1% BSA for 18 hours. At time point zero, culture medium was replaced with RPMI/10% FCS and treatments administered. Cells were treated with recombinant human macrophage migration inhibitory factor (MIF) 50 ng/ml (1.353×10^−9 M) and/or the compound at a 1 or 1000 molar ratio to the concentration of MIF. In some experiments the compound was combined with MIF at time point −30 minutes, prior to adding at time point zero. At time point 30 hours, cells were pulsed with […]. At time point 48 hours, cells were harvested using a semi-automated cell harvester. The radioactivity incorporated into DNA was determined by liquid scintillation counting, with results expressed as [^3H] thymidine incorporation. The proliferation of untreated cells was expressed as 100% and the effect of MIF and each compound expressed in relative %.
The activity of compound 5 was studied in a bioassay utilising MIF-induced proliferation of human dermal fibroblasts. S112 human dermal fibroblasts were propagated in RPMI/10% foetal calf serum (FCS). Prior to experimentation, cells were seeded at 10^5 cells/ml in RPMII/0.1% BSA for 18 hours. At time point zero, culture medium was replaced with RPMI/10% FCS and treatments administered. Cells were treated with recombinant human macrophage migration inhibitory factor (MIF) 50 ng/ml and/or compound 5 at a 1-1000 molar ratio to the concentration of MIF. At a time point 30 hours later, cells were pulsed with 1 μCi/well of ^3H-thymidine. At a time point 48 hours after commencement of the experiment, cells were harvested using a semi-automated cell harvester. The radioactivity incorporated into DNA was determined by liquid scintillation counting, with results expressed as [^3H] thymidine incorporation.

[6] = tested on: ex vivo splenic T cell proliferation; assay: ex vivo antigen-specific splenic T cell proliferation after in vivo treatment; conditions: [mBSA] 10 ug/mL; cells from compound-treated versus vehicle-treated mice
Text: In vivo administration of such a compound might be expected to exert effects on T cell responsiveness even after the T cells have been removed from exposure to the compound, that is, if T cells were studied ex vivo after in vivo treatment with the MIF antagonist compound. To measure ex vivo antigen-specific T cell activation, spleens were removed from mice with murine antigen induced arthritis, induced as above with mBSA, at day 28 after first immunisation and a single cell suspension prepared in DMEM containing 5% FCS and 0.05% 2-mercaptoethanol. 1×10^5 cells /200 μl were cultured in triplicate in the presence or absence of mBSA (0.1, 1.0, 10 μg /ml) in 96-well plates for 48 hours (37° C., 5% CO2) The T cell proliferation response was determined by measuring ^3H-thymidine incorporation during the final 18 hr. The cells were harvested and radioactivity incorporation into the DNA was measured with a Wallac 1409 liquid scintillation counter. The means of each triplicate culture were calculated. Each experiment comprised at least three individual animals and the results presented represent the mean±SEM of groups of animals in each experiment. The percentage inhibition of T cell proliferation was calculated using the result of the ^3H-thymidine incorporation of cells from compound-treated animals divided by the ^3H-thymidine incorporation of cells from vehicle-treated animals.

[7] = tested on: murine endotoxic shock model (LPS); assay: murine endotoxic shock model, serum cytokines by ELISA; type: in vivo; conditions: mice
Experimental: The activity of 6,7-dihydroxynaphthalene-3-sulfonic acid (compound 6) was studied in the murine endotoxic shock model. This model has been previously shown to be dependent on MIF (35). […] Endotoxaemia was induced by intra-peritoneal injection of lipopolysaccharide (LPS) (15 mg/kg) in 400 μl saline. Mice were treated with a saline solution (control) only, a saline solution and LPS, or LPS and 6,7-dihydroxynaphthalene-2-sulfonic acid (compound 6) at a dose of 15 mg/kg body weight by intra-peritoneal injection at 24 hours, 12 hours and 1 hour before intra-peritoneal LPS injection. After 1.5 or 6 hours mice were humanely killed by CO2 inhalation then neck dislocation. Serum was obtained from blood obtained by cardiac puncture prior to death and measured for cytokines including interleukin 1 (IL-1) and interleukin 6 (IL-6) by ELISA. The production of IL-1 and IL-6 has been previously shown to be dependent on MIF (36).
The effect of compounds was further tested under a variety of conditions in animals exposed to endotoxic shock induced as above by the injection of 15 mg/kg LPS by intraperitoneal injection. In each case, compounds were administered by intraperitoneal injection at a dose of 15 mg/kg. Compound administration was associated with reductions in serum cytokine concentration under a variety of administration regimens.

[8] = tested on: murine antigen-induced arthritis; assay: murine antigen-induced arthritis, histological score; type: in vivo, C57BL6/J mice; conditions: 15 mg/kg i.p. once per 24 hours; histology at day 28; mice
Experimental: Antigen-induced arthritis was induced in mice. C57BL6/J male mice, aged 7-10 weeks old, were immunized on day 0 with 200 μg methylated BSA (mBSA) emulsified in 200 μl of Freund's complete adjuvant (FCA) injected subcutaneously into the flank skin. Mice were treated with compound 5, administered by intraperitoneal injection, once per 24 hours at a dose of 15 mg/kg body weight. After seven days, mice received 100 μg “mBSA and 100 μl FCA by intradermal injection at the base of the tail. After a further 14 days, arthritis was induced by intra-articular injection of 30 μg mBSA in 10 μl of sterile saline into the left knee, the right knee being injected with sterile saline alone.
Arthritis was analysed histologically at day 28 after first immunisation. Knee joints were dissected and fixed in 10% buffered formalin for 7 days. Fixed tissues were decalcified for 3 weeks in 15% ethylene-diamine-tetra-acetic acid (EDTA), dehydrated and embedded in paraffin. Sagittal sections (5 μm) of the knee joint were stained with Safranin-O and counterstained with fast green /iron hematoxylin. Histological sections were scored from 0 to 3 for four parameters: Synovitis was defined as hyper-cellularity of the synovium including pannus formation. Joint space exudate was identified as leukocytes, discretely or in aggregates, in the joint space. […]

EC50 ([3]; mBSA 10 μg/ml): 18.1 µM
EC50 ([3]; mBSA 50 μg/ml): 52 µM
Structure (SMILES): COc1cc2ccccc2cc1OC [Compound 2, 6,7-dimethoxynaphthalene]
inhibition at 0.1 µM ([1]; compound 0.1 uM): 11.6%
arthritis severity (articular index, synovial fluid cell number; FIGS. 5 and 6) [2]: significant inhibition of arthritis severity
inhibition at 25 µM ([4]; 25 uM): 5.8%
inhibition at 50 µM ([4]; 50 uM): 8.5%
inhibition at 100 µM ([4]; 100 uM): 13.6%

EC50 ([3]; mBSA 10 μg/ml): 14.8 µM
EC50 ([3]; mBSA 50 μg/ml): 49.5 µM
melting point: 248 to 250 °C
Structure (SMILES): COc1cc2ccc(C(=O)O)cc2cc1OC [Compound 4, 6,7-dimethoxy-2-naphthanoic acid]
inhibition at 1 µM [1]: 2.7%
effect on MIF-induced proliferation of human dermal fibroblasts (FIGS. 1 and 2) ([5]; 1M ratio equivalent to MIF 50 ng/ml): inhibition of MIF-induced proliferation
inhibition at 0.013 µM [5]: 24%
% inhibition of ex vivo splenic T cell proliferation [6]: 18%

Structure (SMILES): O=S(=O)(O)c1ccc2cc(O)ccc2c1 [Compound 24, 6-Hydroxy-2-naphthalene-sulfonic acid]
inhibition at 1 µM [1]: 8.2%
inhibition at 0.013 µM [5]: 18%
Serum IL-6, LPS plus compound ([7]; compound 15 mg/kg i.p. at −24 h, −1 h before LPS 15 mg/kg i.p.): 144 ± 18 ng/mL

Structure (SMILES): O=C(O)c1ccc2c([N+](=O)[O-])c(O)ccc2c1 [Compound 23, 6-hydroxy-5-nitro-2-napthoic acid]
inhibition at 10 µM ([1]; compound 10 uM): 8%
serum IL-1, LPS plus compound ([7]; compound 15 mg/kg i.p. at −16 h before LPS 15 mg/kg i.p.): 58 ± 13 ng/mL
EC50 ([3]; mBSA 10 μg/ml): > 100 µM
EC50 ([3]; mBSA 50 μg/ml): > 100 µM
effect on antigen-specific T cell activation (FIG. 10) ([3]; increasing concentrations, mBSA 50 μg/mL): dose-dependent and statistically significant inhibitory effect
individual parameters of arthritis (synovitis, joint space exudate, cartilage degradation, bone damage; FIG. 11b) [8]: Clinically significant reductions in the severity of all individual parameters of arthritis
total arthritis score (FIG. 11a) [8]: clinically significant reduction in total arthritis score
